Reference: patent publication US8889631B2, “Disruptors of early/recycling endosomes” (The University of Kansas, priority 2008, dated 2014)
“Also recorded” adds a separate entry of the source. Square brackets hold non-standard residues; d marks the D form. Peptide text beside a SMILES is read from it. * marks the point of attachment. Pentanoyl(5-NH-cholesteryl) = CC(C)CCC[C@@H](C)[C@H]1CC[C@H]2[C@@H]3CC=C4C[C@@H](NCCCCC(=O)*)CC[C@]4(C)[C@H]3CC[C@]12C; X1 = O=C(O)c1c(Cl)cc(C(=O)*)c(Cl)c1-c1c2cc(Cl)c(=O)c(Cl)c-2oc2c(Cl)c(O)c(Cl)cc12; Ahx = NCCCCCC(=O)O

How the values were obtained:
Jurkat lymphocytes [1] = assay: Inhibiting endosome acidification, Jurkat cells (bafilomycin A1); type: cell-based, human; conditions: bafilomycin A1 1 μM, Compound 3 (2.5 μM) and Compound 2 (2 μM), 12 h, 37° C.
Description: Jurkat lymphocytes (5×10^5) in media (500 μL) were pretreated with bafilomycin A1 (final concentration=1 μM) in DMSO (final [DMSO]=2%) for 1 h. […] After incubation at 37° C. for 12 h, the cells were washed with fresh media (500 μL) and resuspended in fresh media (125 μL) for analysis by confocal microscopy.

Jurkat lymphocytes [2] = assay: Dose dependence of endosomal escape quantified by flow cytometry, Jurkat lymphocytes; type: cell-based, human; conditions: Compound 3 (2.5 μM) with increased amounts of Compound 1, or Compound 5 at 8 micromolar, 12 h, 37° C.
Description: (§1) Cellular fluorescence was analyzed by flow cytometry.
(§2) Analyses were performed with a Beckman-Coulter XL-MCL bench-top flow cytometer. Forward-scatter (FS) and side-scatter (SSC) dot plots afforded cellular physical properties of size and granularity that allowed gating of live cells. After gating, 10,000 cells were counted. In studies of endosomal release of fluorescein derivative Compound 6 mediated by Compound 1, the fluorophore was excited at 488 nm with a 15 mW air-cooled argon-ion laser, the emission was split with a 550 nm dichroic and filtered through a 510 nm long pass filter and 530/30-nm band pass filter using the XL-MCL cytometer. The PMT voltage for this instrument was set to 501 for Jurkat cells and 524 for CHO cells.

CHO cells [3] = assay: Release of fluorescent cargo from early/recycling endosomes, confocal microscopy, CHO cells; type: cell-based, Chinese hamster; conditions: for release of green fluorescence of Compound 3 from early/recycling endosomes by the endosome disruptor: Compound 3 (5 μM) and Compounds 1, 2, or 5 (8 μM) for 24 h; for release of the fluorophore of the cargo compound when combined with Compound 1 or Compound 2: Compound 3 or Compound 4 (5 μM), disruptor 8 μM, 24 h
Description: (§3) FIG. 4A-4J show confocal fluorescence and DIC micrographs of living cells treated with fluorescent probes. FIGS. 4A-4F show CHO cells were treated with Compound 3 or Compound 4 (5 μM) and Compounds 1, 2, or 5 (8 μM) for 24 h. In FIG. 4F, [chloroquine]=5 μM. In FIGS. 4G-4J, Jurkat lymphocytes were treated with Compound 3 or Compound 4 (2.5 μM) and Compound 1 or Compound 5 (2 μM) for 12 h.
(§4) A Zeiss LSM 5 Pascal confocal laser-scanning microscope fitted with a Plan Apochromat objective (63×) was employed. Fluorescein and Alexa Fluor-488 were excited with a 488 nm Argon ion laser (25 mW, 1% laser power) and emitted photons were collected through 505 nm LP filter. Excitation of 6-Hex, Texas Red, and DiI employed a 543 nm HeNe laser and emitted photons were collected through a 560 nm LP filter.

CHO cells [4] = assay: Dose dependence of endosomal escape quantified by flow cytometry, CHO cells; type: cell-based, Chinese hamster; conditions: Compound 3 (5 μM) with increased amounts of Compound 1, or Compound 5 at 8 micromolar, 24 h, 37° C.
Description: as §1, §2

Jurkat lymphocytes [5] = assay: Release of fluorescent cargo from early/recycling endosomes, confocal microscopy, Jurkat lymphocytes; type: cell-based, human; conditions: for release of green fluorescence of Compound 3 from early/recycling endosomes by the endosome disruptor: Compound 3 (2.5 μM) and disruptor (2 μM) for 12 h; for release of the fluorophore of the cargo compound when combined with Compound 1: Compound 3 or Compound 4 (2.5 μM), Compound 1 (2 μM), 12 h
Description: as §3
Jurkat cells were treated with green fluorescent Compound 3 (2.5 μM) and red fluorescent Compound 2 (2 μM) for 12 h at 37° C. In FIG. 9B, bafilomycin A1 (1 μM), a vacuolar H^+ ATPase inhibitor that blocks acidification of endosomes, was added. FIG. 9A is without bafilomyin. Cells were washed with media and imaged by DIC and confocal laser scanning microscopy.
as §4

CHO cells [6] = assay: Inhibiting endosome acidification, CHO cells (chloroquine); type: cell-based, Chinese hamster; conditions: chloroquine 5 μM, Compound 3 (5 μM) and Compound 2 (8 μM), 24 h
Description: Exponentially growing CHO cells were cultivated on round collagen-coated coverslips (22 mm, BD BioCoat) in a six-well plate (1.2×10^5 cells/well, 2 mL). After 24 h, the media was replaced with fresh media containing chloroquine (final concentration=5 μM) in DMSO (final [DMSO]=1%) and cells were incubated at 37° C. for 1 h. The media was replaced with fresh media containing Compound 3 (5 μM) and Compound 2 (concentration=8 μM) in DMSO (final [DMSO]=1%) with or without chloroquine […] (final concentration=5 μM) in DMSO (final [DMSO]=1%). The cells were incubated at 37° C. for 24 h. The cells were washed with PBS (2×2 mL) prior to analysis by confocal microscopy.

CHO cells [7] = assay: Cytotoxicity assay (CellTiter-Glo), CHO cells; type: cell-based, Chinese hamster; conditions: 8 μM, 48 h at 37° C.
Description: Trypsinized CHO cells (2×10^3) in media (100 μL) were loaded on a 96-well plate. After incubation for 36 h, the media was replaced with fresh media (100 μL) containing increasing concentrations of Compound 1 in DMSO (final [DMSO]=1%). After 48 h of incubation, the cells in each well were washed with PBS (2×100 μL) and detached by treatment with a solution of trypsin (50 μL, 5 min). The cell suspension (10 μL) was transferred to an opaque 96-well plate containing PBS (170 μL per well) and treated with CellTiter-Glo reagent (20 μL, Promega) according to the Promega protocol provided with the reagent. After incubation at ambient temperature (22° C.) for 10 min, the luminescence of the samples was measured with a Packard Fusion microplate reader.

Jurkat lymphocytes [8] = assay: Toxicity of colchicine-cholesterylamine Compound 30 with or without Compound 1, DIC micrographs; type: cell-based, human; conditions: 2 μM; 48 h
Description: FIGS. 11B-11E show DIC micrographs of Jurkat lymphocytes treated for 48 h with DMSO (FIG. 11B), Compound 1 (FIG. 11C), Compound 30 (FIG. 11D, and Compounds 1 and 30 (FIG. 11E).
The delivery system was studied with the anticancer agent colchicine being linked to the N-alkyl-3β-cholesterylamine via a disulfide, which compound is Compound 30 as shown in FIG. 11A. The delivery system utilized Compound 1 to release the anticancer agent colchicine from Compound 30. Colchicine was linked to an N-alkyl-3β-cholesterylamine via a disulfide linker to present a compound that is non-toxic to Jurkat lymphocytes at 200 nM. The cholesterylamine-PC4 peptide (Compound 1) is similarly non-toxic at 2 μM. However, the combination of these two compounds (Compound 1+Compound 30) is lethal to lymphocytes because Compound 1 enables release of the toxic colchicine derivative (FIGS. 11B-11E). […] It is thought that tumor-specific proteases capable of cleaving a peptide bond linking N-alkyl-3β-cholesterylamines to doxorubicin or other cancer agent will similarly enable the specific delivery of drugs to cognate cancer cells. Also, a cell type specific protease can be used for controlling delivery of the agent into the cytosol of those cell types.

Jurkat lymphocytes [9] = assay: Cytotoxicity assay (CellTiter-Glo), Jurkat cells; type: cell-based, human; conditions: 2 μM, 48 h at 37° C.
Description: Jurkat lymphocytes (7×10^4) in media (100 μL) were loaded on a 96-well plate. To these cells were added increasing concentrations of Compound 1 in DMSO (final [DMSO]=1%). After incubation for 48 h, cells from each well (10 μL) were transferred to an opaque 96-well plate containing PBS (170 μL per well) and treated with CellTiter-Glo reagent (20 μL, Promega) according to the Promega protocol provided with the reagent. After incubation at ambient temperature (22° C.) for 10 min, the luminescence of the samples was measured with a Packard Fusion microplate reader.

CO/C1=C\C(C)=C\[C@@H](C)[C@@H](O)[C@@H](C)C/C(C)=C/C=C/[C@H](OC)[C@@H]([C@@H](C)[C@@H](O)[C@H](C)[C@@]2(O)C[C@@H](O)[C@H](C)[C@@H](C(C)C)O2)OC1=O [bafilomycin A1]
effect of raising endosomal pH on release of the fluorophore (endosomal escape) (Jurkat lymphocytes [1]): blocked release of the fluorophore; also recorded: retention in endosomes

Ac-SSAWWSYWPPVA-NH2 [Compound 5, N-Acetyl-L-seryl-L-seryl-L-alanyl-L-tryptophyl-L-tryptophyl-L-seryl-L-tyrosyl-L-tryptophyl-L-prolyl-L-prolyl-L-valyl-L-alaninamide, reference compound]
cellular fluorescence (endosomal escape) by flow cytometry (Jurkat lymphocytes [2]): did not increase fluorescence | release of green fluorescence of Compound 3 from early/recycling endosomes by the endosome disruptor (CHO cells [3]): little effect | cellular fluorescence (endosomal escape) by flow cytometry (CHO cells [4]): did not increase fluorescence | release of green fluorescence of Compound 3 from early/recycling endosomes by the endosome disruptor (Jurkat lymphocytes [5]): little effect

CC(C)CCC[C@@H](C)[C@H]1CC[C@H]2[C@@H]3CC=C4C[C@@H](NCCCNC(=O)[C@H](CCC(=O)O)NC(=O)[C@H](CCC(=O)O)NC(=O)CCSSCCNC(=O)c5ccc(-c6c7ccc(=O)cc-7oc7cc(O)ccc67)c(C(=O)O)c5)CC[C@]4(C)[C@H]3CC[C@]12C [Compound 3, (11S,14S)-11-(2-Carboxylatoethyl)-1-[3-carboxylato-4-(6-oxido-3-oxo-3H-xanthen-9-yl)phenyl]-14-[({3-(3β-cholest-5-en-3-ylammonio)propyl}amino)carbonyl]-1,9,12-trioxo-5,6-dithia-2,10,13-triazaheptadecan-17-oate]
release of the fluorophore of the cargo compound when combined with Compound 1 or Compound 2 (CHO cells [3]): released from entrapment in early/recycling endosomes | release of the fluorophore of the cargo compound when combined with Compound 1 (Jurkat lymphocytes [5]): released from entrapment in early/recycling endosomes

CC(C)CCC[C@@H](C)[C@H]1CC[C@H]2[C@@H]3CC=C4C[C@@H](NCCCNC(=O)[C@H](CCC(=O)O)NC(=O)[C@H](CCC(=O)O)NC(=O)CCNC(=O)CCNC(=O)c5ccc(-c6c7ccc(=O)cc-7oc7cc(O)ccc67)c(C(=O)O)c5)CC[C@]4(C)[C@H]3CC[C@]12C [Compound 4, (11S,14S)-11-(2-Carboxylatoethyl)-1-[3-carboxylato-4-(6-oxido-3-oxo-3H-xanthen-9-yl)phenyl]-14-[({3-(3β-cholest-5-en-3-ylammonio)propyl}amino)carbonyl]-1,5,9,12-tetraoxo-2,6,10,13-tetraazaheptadecan-17-oate]
release of the fluorophore of the cargo compound when combined with Compound 1 or Compound 2 (CHO cells [3]): blocked release of the fluorophore | release of the fluorophore of the cargo compound when combined with Compound 1 (Jurkat lymphocytes [5]): blocked release of the fluorophore

CC(C)CCC[C@@H](C)[C@H]1CC[C@H]2[C@@H]3CC=C4C[C@@H](NCCCCC(=O)N[C@@H](CCC(=O)O)C(=O)N[C@@H](CCCCNC(=O)c5cc(Cl)c(C(=O)O)c(-c6c7cc(Cl)c(=O)c(Cl)c-7oc7c(Cl)c(O)c(Cl)cc67)c5Cl)C(=O)NCCCCCC(=O)NCCCCCC(=O)N[C@@H](CO)C(=O)N[C@@H](CO)C(=O)N[C@@H](C)C(=O)N[C@@H](Cc5c[nH]c6ccccc56)C(=O)N[C@@H](Cc5c[nH]c6ccccc56)C(=O)N[C@@H](CO)C(=O)N[C@@H](Cc5ccc(O)cc5)C(=O)N[C@@H](Cc5c[nH]c6ccccc56)C(=O)N5CCC[C@H]5C(=O)N5CCC[C@H]5C(=O)N[C@H](C(=O)N[C@@H](C)C(N)=O)C(C)C)CC[C@]4(C)[C@H]3CC[C@]12C [Compound 2, N-(6-{[6-({N-{5-(3β-Cholest-5-en-3-ylammonio)pentanoyl}-5-oxidanidyl-5-oxidanylidene-L-norvalyl-N^6-[4-carboxy-2,5-dichloro-3-(2,4,5,7-tetrachloro-6-hydroxy-3-oxo-3H-xanthen-9-yl)benzoyl]-L-lysyl}amino)hexanoyl]amino}hexanoyl)-L-seryl-L-seryl-L-alanyl-L-tryptophyl-L-tryptophyl-L-seryl-L-tyrosyl-L-tryptophyl-L-prolyl-L-prolyl-L-valyl-L-alaninamide] ({Pentanoyl(5-NH-cholesteryl)}-EK(X1)[Ahx][Ahx]SSAWWSYWPPVA-NH2)
release of green fluorescence of Compound 3 from early/recycling endosomes by the endosome disruptor (CHO cells [3]): fluorescence was observed in the cytosol and nucleus | release of green fluorescence of Compound 3 from early/recycling endosomes by the endosome disruptor (Jurkat lymphocytes [5]): endosomal escape

CCN(CC)CCCC(C)Nc1ccnc2cc(Cl)ccc12 (stereo not drawn) [chloroquine]
effect of raising endosomal pH on release of the fluorophore (CHO cells [6]): blocked release of the fluorophore

CC(C)CCC[C@@H](C)[C@H]1CC[C@H]2[C@@H]3CC=C4C[C@@H](NCCCCC(=O)N[C@@H](CCC(=O)O)C(=O)N[C@@H](CCC(=O)O)C(=O)NCCCCCC(=O)NCCCCCC(=O)N[C@@H](CO)C(=O)N[C@@H](CO)C(=O)N[C@@H](C)C(=O)N[C@@H](Cc5c[nH]c6ccccc56)C(=O)N[C@@H](Cc5c[nH]c6ccccc56)C(=O)N[C@@H](CO)C(=O)N[C@@H](Cc5ccc(O)cc5)C(=O)N[C@@H](Cc5c[nH]c6ccccc56)C(=O)N5CCC[C@H]5C(=O)N5CCC[C@H]5C(=O)N[C@H](C(=O)N[C@@H](C)C(N)=O)C(C)C)CC[C@]4(C)[C@H]3CC[C@]12C [Compound 1, N-[6-({6-[(N-{5-(3β-Cholest-5-en-3-ylammonio)pentanoyl}-5-oxidanidyl-5-oxidanylidene-L-norvalyl-5-oxidanidyl-5-oxidanylidene-L-norvalyl)amino]hexanoyl}amino)hexanoyl]-L-seryl-L-seryl-L-alanyl-L-tryptophyl-L-tryptophyl-L-seryl-L-tyrosyl-L-tryptophyl-L-prolyl-L-prolyl-L-valyl-L-alaninamide] ({Pentanoyl(5-NH-cholesteryl)}-EE[Ahx][Ahx]SSAWWSYWPPVA-NH2)
toxicity (cellular viability) (CHO cells [7]): non-toxic | toxicity to Jurkat lymphocytes (Jurkat lymphocytes [8]): non-toxic | toxicity (cellular viability) (Jurkat lymphocytes [9]): non-toxic
